Test results: PubChem BioAssay AID1963837 (Molecular Pharmacology Branch, DTP, NCI, 2024)

tested on: 843126-344-R-J1-PDC complex spheroid viability; assay: Anticancer human tumor 843126-344-R-J1-PDC patient-derived melanoma cell line growth inhibition [POLQ]; conditions: second compound 1 µM; first compound 0.1 µM; active compounds read low
Experimental: Multicellular complex tumor spheroid response to Polymerase (POL) inhibitors (novobiocin, ART-558, RP6685) in combination with a variety of drugs and investigational agents in selected tumor cell lines
The POL inhibitors (novobiocin, ART-558, and RP6685) were evaluated both individually and in combination with standard of care and investigational anticancer small molecules within a complex spheroid model of solid tumors. . Complex spheroids include a stromal component modeled by human endothelial cells (HUVEC) and fibroblasts modeled by human mesenchymal stem cells (MSCs). The concentration ranges selected for each drug and investigational agent were based upon clinically achievable concentrations if the clinical Cmax of the agent was known.
Compounds. The drugs and investigational agents: novobiocin (NSC847541), ART-558 (NSC835418), RP-6685 (NSC848927), peposertib (NSC802822), ceralasertib (NSC780249), elimusertib (NSC800525), camonsertib (NSC841442), AZD-1390 (NSC803789), olaparib (NSC753686), talazoparib (NSC767125), rucaparib (NSC756644), sotorasib (NSC818433), MRTX-1133 (NSC836407), SN-38 (NSC673596), topotecan (NSC609699), epotoside (NSC141540), doxorubicin (NSC123127), gemcitabine (NSC613327), 5-fluorouracil (NSC19893), paclitaxel (NSC125973), vemurafenib (NSC761431), MSA-2 (NSC828583), SN-011 (NSC837082), adavosertib (NSC754352), prexasertib (NSC758257), carboplatin (NSC241240) and oxaliplatin (NSC266046), were obtained from the National Cancer Institute (NCI) Developmental Therapeutics Program Chemical Repository (21). The FDA-approved anticancer drug set is available from the Developmental Therapeutics Program at https://dtp.cancer.gov/organization/dscb/obtaining/. […] The stock solutions were prepared in dimethyl sulfoxide (DMSO, Sigma-Aldrich, St. Louis, MO, cat. D2650), except for the platinum compounds which were prepared in saline (Quality Biological, Gaithersburg, MD, cat. 114-055-101), at 800-fold the tested concentration and stored at -70 degrees C prior to their use. All drugs and investigational agents were tested over a range starting from a high concentration at or near the clinical Cmax and decreasing in half-log increments. If the clinical Cmax for an agent had not been determined, the highest concentration tested was 10 microM, except for SN-38, which was tested at a high concentration of 1 microM.
Cell Culture. All cells were maintained in an incubator at 37 degrees C and 5% CO2 with 95% humidity. The PDC lines were cultured according to standard operating procedures established by the NCI PDMR (https://pdmr.cancer.gov). Table 3 of the manuscript, lists the cell lines along with the number of the three cell types plated to form the mct-spheroids and media for tumor cell growth. After thawing, all PDC lines, except 997537-175-T-J1-PDC and 415267-285-R-J2-PDC, were cultured in Matrigel-coated flasks prepared with a working solution of 1X Ham's F-12 nutrient mix, without supplementation (Thermo Fisher Scientific, cat. 11765054), 100 U/mL penicillin-streptomycin (Thermo Fisher Scientific, cat. 15140122), and 2.5% Matrigel (Corning Inc., Corning, NY, cat. 354248) for the first three passages. The two PDC lines 997537-175-T-J1-PDC and 415267-285-R-J2-PDC were cultured on uncoated flasks. The 857933-349-R-J2-PDC line was cultured in 6C/Colon 1B media containing advanced DMEM/F-12 (Thermo Fisher Scientific, cat. 12634028), 10 mM HEPES (Thermo Fisher Scientific, cat. 15630080), 1X GlutaMAX supplement (Thermo Fisher Scientific, cat. 35050061), 0.1 mg/mL primocin (InvivoGen, San Diego, CA, cat. ant-pm-2), 10% defined fetal bovine serum, heat inactivated (HyClone Laboratories Inc., Logan, UT, cat. SH30070.03HI), 50% L-WRN conditioned media (ATCC, cat. CRL-3276), 1.25 mM N-Acetyl-L-cysteine (Sigma-Aldrich, cat. A9165), 10 mM nicotinamide (Sigma-Aldrich, cat. N0636), 1X B-27 supplement (Thermo Fisher Scientific, cat. 17504044), 1X N-2 supplement (Thermo Fisher Scientific, cat. […]
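Also: spheroids exposed to drugs for seven days before readout.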

Question: Which viability, T/C does the source give for COc1cccc(OCCCN)c1-c1cc(Nc2cnc(C#N)cn2)n[nH]1 + Cc1cccc(N(C)C(=O)C2C(O)CCN2c2nc(C)cc(C(F)(F)F)c2C#N)c1 here?
Answer: Its viability, T/C is 54.7%.

same assay, conditions: second compound 1 µM; first compound 0.316 µM; active compounds read low

Question: With CC1COCCN1c1cc(-c2ccnn2C)c2ccnc(-c3ccn[nH]3)c2n1 (stereo unspecified) + Cc1cccc(N(C)C(=O)C2C(O)CCN2c2nc(C)cc(C(F)(F)F)c2C#N)c1 as the compound, how does the viability, T/C read?
Answer: Its viability, T/C is 68.8%.

Question: With CC1COCCN1c1cc(C2(O)CC3CCC(C2)O3)c2cnn(-c3ccn[nH]3)c2n1 (stereo unspecified) + Cc1cccc(N(C)C(=O)C2C(O)CCN2c2nc(C)cc(C(F)(F)F)c2C#N)c1 as the compound, how does the viability, T/C read?
Answer: The viability, T/C was 56.9%.

Question: For CC1COCCN1c1cc(C2(S(C)(=N)=O)CC2)nc(-c2ccnc3[nH]ccc23)n1 (stereo unspecified) + Cc1cccc(N(C)C(=O)C2C(O)CCN2c2nc(C)cc(C(F)(F)F)c2C#N)c1, which viability, T/C is on record?
Answer: The viability, T/C was 90.6%.

Question: How did the viability, T/C turn out when COc1cccc(OCCCN)c1-c1cc(Nc2cnc(C#N)cn2)n[nH]1 + Cc1cccc(N(C)C(=O)C2C(O)CCN2c2nc(C)cc(C(F)(F)F)c2C#N)c1 was run?
Answer: Its viability, T/C is 42.3%.

same assay, conditions: second compound 1 µM; first compound 1 µM; active compounds read low

Question: CC1COCCN1c1cc(-c2ccnn2C)c2ccnc(-c3ccn[nH]3)c2n1 (stereo unspecified) + Cc1cccc(N(C)C(=O)C2C(O)CCN2c2nc(C)cc(C(F)(F)F)c2C#N)c1 was tested. Which viability, T/C did it give?
Answer: Its viability, T/C is 55.6%.

Question: How did the viability, T/C turn out when CC1COCCN1c1cc(C2(O)CC3CCC(C2)O3)c2cnn(-c3ccn[nH]3)c2n1 (stereo unspecified) + Cc1cccc(N(C)C(=O)C2C(O)CCN2c2nc(C)cc(C(F)(F)F)c2C#N)c1 was run?
Answer: The viability, T/C was 40.8%.

Question: How did the viability, T/C turn out when CC1COCCN1c1cc(C2(S(C)(=N)=O)CC2)nc(-c2ccnc3[nH]ccc23)n1 (stereo unspecified) + Cc1cccc(N(C)C(=O)C2C(O)CCN2c2nc(C)cc(C(F)(F)F)c2C#N)c1 was run?
Answer: Its viability, T/C is 82.4%.

Question: COc1cccc(OCCCN)c1-c1cc(Nc2cnc(C#N)cn2)n[nH]1 + Cc1cccc(N(C)C(=O)C2C(O)CCN2c2nc(C)cc(C(F)(F)F)c2C#N)c1 was tested. Which viability, T/C did it give?
Answer: The viability, T/C was 32.7%.

same assay, conditions: second compound 1 µM; first compound 3.16 µM; active compounds read low

Question: CC1COCCN1c1cc(-c2ccnn2C)c2ccnc(-c3ccn[nH]3)c2n1 (stereo unspecified) + Cc1cccc(N(C)C(=O)C2C(O)CCN2c2nc(C)cc(C(F)(F)F)c2C#N)c1 was tested. Which viability, T/C did it give?
Answer: The viability, T/C was 42.6%.

Question: How did the viability, T/C turn out when CC1COCCN1c1cc(C2(O)CC3CCC(C2)O3)c2cnn(-c3ccn[nH]3)c2n1 (stereo unspecified) + Cc1cccc(N(C)C(=O)C2C(O)CCN2c2nc(C)cc(C(F)(F)F)c2C#N)c1 was run?
Answer: The viability, T/C was 32.7%.

Question: CC1COCCN1c1cc(C2(S(C)(=N)=O)CC2)nc(-c2ccnc3[nH]ccc23)n1 (stereo unspecified) + Cc1cccc(N(C)C(=O)C2C(O)CCN2c2nc(C)cc(C(F)(F)F)c2C#N)c1 was tested. Which viability, T/C did it give?
Answer: The viability, T/C was 65.8%.

same assay, conditions: second compound 1 µM; first compound 10 µM; active compounds read low

Question: How did the viability, T/C turn out when CC1COCCN1c1cc(-c2ccnn2C)c2ccnc(-c3ccn[nH]3)c2n1 (stereo unspecified) + Cc1cccc(N(C)C(=O)C2C(O)CCN2c2nc(C)cc(C(F)(F)F)c2C#N)c1 was run?
Answer: Its viability, T/C is 33.3%.

Question: For CC1COCCN1c1cc(C2(O)CC3CCC(C2)O3)c2cnn(-c3ccn[nH]3)c2n1 (stereo unspecified) + Cc1cccc(N(C)C(=O)C2C(O)CCN2c2nc(C)cc(C(F)(F)F)c2C#N)c1, which viability, T/C is on record?
Answer: Its viability, T/C is 21%.

Question: CC1COCCN1c1cc(C2(S(C)(=N)=O)CC2)nc(-c2ccnc3[nH]ccc23)n1 (stereo unspecified) + Cc1cccc(N(C)C(=O)C2C(O)CCN2c2nc(C)cc(C(F)(F)F)c2C#N)c1 was tested. Which viability, T/C did it give?
Answer: Its viability, T/C is 57.6%.

same assay, conditions: second compound 3.16 µM; first compound 0.00316 µM; active compounds read low

Question: Which viability, T/C does the source give for COc1cccc(OCCCN)c1-c1cc(Nc2cnc(C#N)cn2)n[nH]1 + Cc1cccc(N(C)C(=O)C2C(O)CCN2c2nc(C)cc(C(F)(F)F)c2C#N)c1 here?
Answer: The viability, T/C was 98.3%.

same assay, conditions: second compound 3.16 µM; first compound 0.01 µM; active compounds read low

Question: How did the viability, T/C turn out when COc1cccc(OCCCN)c1-c1cc(Nc2cnc(C#N)cn2)n[nH]1 + Cc1cccc(N(C)C(=O)C2C(O)CCN2c2nc(C)cc(C(F)(F)F)c2C#N)c1 was run?
Answer: Its viability, T/C is 77.3%.

same assay, conditions: second compound 3.16 µM; first compound 0.0316 µM; active compounds read low

Question: With CC1COCCN1c1cc(-c2ccnn2C)c2ccnc(-c3ccn[nH]3)c2n1 (stereo unspecified) + Cc1cccc(N(C)C(=O)C2C(O)CCN2c2nc(C)cc(C(F)(F)F)c2C#N)c1 as the compound, how does the viability, T/C read?
Answer: The viability, T/C was 89%.

Question: How did the viability, T/C turn out when CC1COCCN1c1cc(C2(O)CC3CCC(C2)O3)c2cnn(-c3ccn[nH]3)c2n1 (stereo unspecified) + Cc1cccc(N(C)C(=O)C2C(O)CCN2c2nc(C)cc(C(F)(F)F)c2C#N)c1 was run?
Answer: The viability, T/C was 91.2%.

Question: How did the viability, T/C turn out when CC1COCCN1c1cc(C2(S(C)(=N)=O)CC2)nc(-c2ccnc3[nH]ccc23)n1 (stereo unspecified) + Cc1cccc(N(C)C(=O)C2C(O)CCN2c2nc(C)cc(C(F)(F)F)c2C#N)c1 was run?
Answer: Its viability, T/C is 93.9%.

Question: How did the viability, T/C turn out when COc1cccc(OCCCN)c1-c1cc(Nc2cnc(C#N)cn2)n[nH]1 + Cc1cccc(N(C)C(=O)C2C(O)CCN2c2nc(C)cc(C(F)(F)F)c2C#N)c1 was run?
Answer: Its viability, T/C is 58.3%.
